In US20240254186A1, “GLP-1 Receptor Agonists Having Improved Pharmacological and Drug Delivery Properties” (priority 2021, published 2024):
Like-named read-outs stand apart in the source and are kept apart here. Numbered stars: 1 amine (or outer) side, 2 acyl side, 3 side chain; on linkers, the order of the positions; unused ones are H or OH. Square brackets hold non-standard residues; d marks the D form. Side chains are listed from the residue outwards. Peptide text beside a SMILES is read from it. * marks the point of attachment. Dap(Nα-HOOC(CH2)16CO)OH = O=C(O)CCCCCCCCCCCCCCCCC(=O)N[C@@H](CN*)C(=O)O; X5 = O=C(O)CCCCCCCCCCCCCCCc1cn(-c2ccc(C[C@H](N[*:1])C(=O)[*:2])cc2)nn1; X3 = O=C(O)CCCCCCCCCCCCCCCc1cnnn1-c1ccc(C[C@H](N[*:1])C(=O)[*:2])cc1; X6 = O=C([C@H](CCc1ccc(OC(=O)[*:3])cc1)N[*:1])[*:2]; Bip = N[C@@H](Cc1ccc(-c2ccccc2)cc1)C(=O)O; C18 diacid = O=C(O)CCCCCCCCCCCCCCCCC(=O)*; X2 = O=C(CCc1ccc(I)cc1)N[C@@H](CN*)C(=O)O; αMePhe(2-F) = C[C@](N)(Cc1ccccc1F)C(=O)O; γGlu = O=C(O)[C@H](CCC(=O)[*:2])N[*:1]; hPhe = N[C@@H](CCc1ccccc1)C(=O)O; αMeF = C[C@](N)(Cc1ccccc1)C(=O)O; PEG4 = NCCOCCOCCOCCOCCC(=O)O; αMeP = C[C@@]1(C(=O)O)CCCN1; AEEA = NCCOCCOCC(=O)O; Aib = CC(C)(N)C(=O)O; CO = O=C([*:1])[*:2]

Biological target: T1, hGLP1 receptor (Homo sapiens, UniProt P43220)
T1 construct: expressed in transfected cells; host or cells: HEK (human embryonic kidney) cells co-expressing hGLP1 receptor and a CRE-Luciferase construct
Assay: cAMP HTRF agonist assay in HEK cells co-expressing the hGLP1 receptor and CRE-Luciferase construct
Type: cell-based
Settings: for potency relative to the parent peptide (1-4), fold less potent: versus parent 1-4
Procedure: Human embryonic kidney cells (HEK) co-expressing the hGLP1 receptor and CRE-Luciferase construct were used to determine agonist potency in this assay. The cells were thawed briefly at 37° C., transferred to a sterile tube and re-suspended in complete media at 37° C. Cells were centrifuged at 1000 rpm for 5 minutes and cells collected; cells were re-suspended in assay buffer consisting of DPBS (GIBCO) with 500 μM of the phosphodiesterase inhibitor IBMX. […] The optimal cell density was determined to be 1000 cells/well; cells were added to wells in 384-well plates containing appropriate pre-prepared dilutions of compounds (test peptides or reference compound exendin-4), sealed and incubated with CO2 for 30 min. Test peptide solutions were diluted from 10 mM stock solutions; for most peptides an initial run was performed in duplicate from a maximal concentration of 1.0 μM, with 11 concentrations tested for each peptide using serial 1:3 dilution from this maximal concentration. […] The agonist assay was a homogeneous time-resolved fluorescence (HTRF) assay (Cisbio).
Following incubation of the cells for 30 minutes with test or reference peptides, 5 μL of the cAMP acceptor cAMP-d2, prepared previously as a working solution from frozen stock (1:20 dilution), was added to each well of the assay plate, along with 5 μL of anti-cAMP antibody-cryptate working solution (diluted 1:20 from frozen stock). The wells were incubated for 1 hour at room temperature, and fluorescence was then read at 665 and 615 nm with an Envision reader with TRF laser. Data were saved and analyzed using Prism software (GraphPad). Concentration-response analysis was performed using 4-parameter logistic fits of the resulting data, and EC50 values obtained for each test and reference compound.

[1] = Table 6, cell annotated (0% albumin), read-out: cAMP EC50
[2] = read-out: cAMP EC50, nM (0.1% albumin), Table 6, C-terminal PK-modifier conjugates, 0.1% albumin

T1 sequence (P43220 24-463): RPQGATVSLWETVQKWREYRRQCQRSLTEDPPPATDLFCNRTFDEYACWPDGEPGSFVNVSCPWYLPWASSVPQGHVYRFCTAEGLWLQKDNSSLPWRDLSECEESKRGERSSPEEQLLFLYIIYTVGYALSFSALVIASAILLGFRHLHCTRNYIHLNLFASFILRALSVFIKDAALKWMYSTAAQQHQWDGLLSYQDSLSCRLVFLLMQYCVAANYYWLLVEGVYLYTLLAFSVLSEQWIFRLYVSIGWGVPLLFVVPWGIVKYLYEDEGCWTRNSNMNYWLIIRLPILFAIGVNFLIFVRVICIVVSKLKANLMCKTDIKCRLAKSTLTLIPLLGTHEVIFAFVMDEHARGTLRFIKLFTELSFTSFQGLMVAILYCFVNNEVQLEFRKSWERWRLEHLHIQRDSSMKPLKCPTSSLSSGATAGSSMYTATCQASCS

| SMILES | EC50 [2] [nM] | also measured |
| --- | --- | --- |
| C[C@@H](O)[C@H](NC(=O)CNC(=O)[C@H](CCC(=O)O)NC(=O)[C@]1(C)CCCN1C(=O)[C@@H](N)Cc1c[nH]cn1)C(=O)N[C@@](C)(Cc1ccccc1F)C(=O)N[C@H](C(=O)N[C@@H](CO)C(=O)N[C@@H](CC(=O)O)C(=O)N[C@@H](Cc1ccc(-n2cc(CCCCCCCCCCCCCCCC(=O)O)nn2)cc1)C(=O)N[C@@H](Cc1ccc(-c2ccccc2)cc1)C(N)=O)[C@@H](C)O [4-71-i1, H2N-His-α-MePro-Glu-Gly-Thr-α-MePhe(2-F)-Thr-Ser-Asp-FN3(C18 acid)-Bip-C(O)NH2] (H-H[αMeP]EGT[αMePhe(2-F)]TSD[X5][Bip]-NH2) | – | EC50 [1]: 0.009 nM |
| C[C@@H](O)[C@H](NC(=O)CNC(=O)[C@H](CCC(=O)O)NC(=O)C(C)(C)NC(=O)[C@@H](N)Cc1c[nH]cn1)C(=O)N[C@@](C)(Cc1ccccc1F)C(=O)N[C@H](C(=O)N[C@@H](CO)C(=O)N[C@@H](CC(=O)O)C(=O)N[C@@H](Cc1ccc(-c2ccccc2)cc1)C(=O)N[C@@H](CCc1ccccc1)C(=O)NCCOCCOCC(=O)NCCOCCOCC(=O)NC[C@H](NC(=O)CCCCCCCCCCCCCCCCC(=O)O)C(=O)O)[C@@H](C)O [4-36, H2N-His-Aib-Glu-Gly-Thr-α-MePhe(2-F)-Thr-Ser-Asp-Bip-Hph-C(O)NH-RY2] (H-H[Aib]EGT[αMePhe(2-F)]TSD[Bip][hPhe][AEEA][AEEA]-{Dap(Nα-HOOC(CH2)16CO)OH}) | – | potency relative to the parent peptide (1-4), fold less potent: 15 fold |
| C[C@@H](O)[C@H](NC(=O)CNC(=O)[C@H](CCC(=O)O)NC(=O)[C@]1(C)CCCN1C(=O)[C@@H](N)Cc1c[nH]cn1)C(=O)N[C@@](C)(Cc1ccccc1F)C(=O)N[C@H](C(=O)N[C@@H](CO)C(=O)N[C@@H](CC(=O)O)C(=O)N[C@@H](Cc1ccc(-c2ccccc2)cc1)C(=O)N[C@@H](Cc1ccc(-c2ccccc2)cc1)C(=O)NC(C)(C)C(=O)N[C@@H](CCCCNC(=O)CCOCCOCCOCCOCCNC(=O)CC[C@H](NC(=O)CCCCCCCCCCCCCCCCC(=O)O)C(=O)O)C(N)=O)[C@@H](C)O [4-65, H2N-His-α-MePro-Glu-Gly-Thr-α-MePhe(2-F)-Thr-Ser-Asp-Bip-Bip-C(O)NH-RY21] (H-H[αMeP]EGT[αMePhe(2-F)]TSD[Bip][Bip][Aib]K([PEG4-γGlu-C18 diacid])-NH2) | 3.8 | – |
| C[C@@H](O)[C@H](NC(=O)CNC(=O)[C@H](CCC(=O)O)NC(=O)C(C)(C)NC(=O)[C@@H](N)Cc1c[nH]cn1)C(=O)N[C@@](C)(Cc1ccccc1F)C(=O)N[C@H](C(=O)N[C@@H](CO)C(=O)N[C@@H](CC(=O)O)C(=O)N[C@@H](Cc1ccc(-c2ccccc2)cc1)C(=O)N[C@@H](CCc1ccccc1)C(=O)O)[C@@H](C)O [4-1, H2N-His-Aib-Glu-Gly-Thr-α-MePhe(2-F)-Thr-Ser-Asp-Bip-Hph-C(O)OH] (H-H[Aib]EGT[αMePhe(2-F)]TSD[Bip][hPhe]-OH) | – | potency relative to the parent peptide (1-4), fold less potent: about 30 fold |
| C[C@@H](O)[C@H](NC(=O)CNC(=O)[C@H](CCC(=O)O)NC(=O)C(C)(C)NC(=O)[C@@H](N)Cc1c[nH]cn1)C(=O)N[C@@](C)(Cc1ccccc1F)C(=O)N[C@H](C(=O)N[C@@H](CO)C(=O)N[C@@H](CC(=O)O)C(=O)N[C@@H](Cc1ccc(-c2ccccc2)cc1)C(=O)N[C@@H](CCc1ccccc1)C(=O)NCCOCCOCC(=O)NCCOCCOCC(=O)NCCOCCOCC(=O)NC[C@H](NC(=O)CCc1ccc(I)cc1)C(=O)O)[C@@H](C)O [4-37, H2N-His-Aib-Glu-Gly-Thr-α-MePhe(2-F)-Thr-Ser-Asp-Bip-Hph-C(O)NH-RY3] (H-H[Aib]EGT[αMePhe(2-F)]TSD[Bip][hPhe][AEEA][AEEA][AEEA]-X2) | 4.08 | potency relative to the parent peptide (1-4), fold less potent: equipotency |
| C[C@@H](O)[C@H](NC(=O)CNC(=O)[C@H](CCC(=O)O)NC(=O)C(C)(C)NC(=O)[C@@H](N)Cc1c[nH]cn1)C(=O)N[C@@](C)(Cc1ccccc1F)C(=O)N[C@H](C(=O)N[C@@H](CO)C(=O)N[C@@H](CC(=O)O)C(=O)N[C@@H](Cc1ccc(-c2ccccc2)cc1)C(=O)N[C@H](Cc1ccc(OC(=O)NCCOCCOCC(=O)NCCOCCOCC(N)=O)cc1)C(N)=O)[C@@H](C)O [(D)-4-42, H2N-His-Aib-Glu-Gly-Thr-α-MePhe(2-F)-Thr-Ser-Asp-Bip-D-Tyr(O-R4)-C(O)NH2] (H-H[Aib]EGT[αMePhe(2-F)]TSD[Bip][dY]([CO-AEEA-AEEA-NH2])-NH2) | 791 | – |
| C[C@@H](O)[C@H](NC(=O)CNC(=O)[C@H](CCC(=O)O)NC(=O)[C@]1(C)CCCN1C(=O)[C@@H](N)Cc1c[nH]cn1)C(=O)N[C@@](C)(Cc1ccccc1F)C(=O)N[C@H](C(=O)N[C@@H](CO)C(=O)N[C@@H](CC(=O)O)C(=O)N[C@@H](Cc1ccc(-n2nncc2CCCCCCCCCCCCCCCC(=O)O)cc1)C(=O)N[C@@H](Cc1ccc(-c2ccccc2)cc1)C(N)=O)[C@@H](C)O [4-71-i2, H2N-His-α-MePro-Glu-Gly-Thr-α-MePhe(2-F)-Thr-Ser-Asp-FN3(C18 acid)-Bip-C(O)NH2] (H-H[αMeP]EGT[αMePhe(2-F)]TSD[X3][Bip]-NH2) | – | EC50 [1]: 0.1 nM |
| C[C@@H](O)[C@H](NC(=O)CNC(=O)[C@H](CCC(=O)O)NC(=O)C(C)(C)NC(=O)[C@@H](N)Cc1c[nH]cn1)C(=O)N[C@@](C)(Cc1ccccc1F)C(=O)N[C@H](C(=O)N[C@@H](CO)C(=O)N[C@@H](CC(=O)O)C(=O)N[C@@H](Cc1ccc(-c2ccccc2)cc1)C(=O)N[C@H](Cc1ccc(OC(=O)NCCOCCOCC(=O)NCCOCCOCC(=O)NCCOCCOCC(=O)NC[C@H](NC(=O)CCc2ccc(I)cc2)C(=O)O)cc1)C(N)=O)[C@@H](C)O [(D)-4-44, H2N-His-Aib-Glu-Gly-Thr-α-MePhe(2-F)-Thr-Ser-Asp-Bip-D-Tyr(O-R6)-C(O)NH2] (H-H[Aib]EGT[αMePhe(2-F)]TSD[Bip][dY]([CO-AEEA-AEEA-AEEA-X2])-NH2) | 299 | – |
| C[C@@H](O)[C@H](NC(=O)CNC(=O)[C@H](CCC(=O)O)NC(=O)C(C)(C)NC(=O)[C@@H](N)Cc1c[nH]cn1)C(=O)N[C@@](C)(Cc1ccccc1)C(=O)N[C@H](C(=O)N[C@@H](CO)C(=O)N[C@@H](CC(=O)O)C(=O)N[C@@H](Cc1ccc(-c2ccccc2)cc1)C(=O)N[C@@H](Cc1ccc(-c2ccccc2)cc1)C(N)=O)[C@@H](C)O [3-16, H2N-His-Aib-Glu-Gly-Thr-α-MePhe-Thr-Ser-Asp-Bip-Bip-C(O)NH2] (H-H[Aib]EGT[αMeF]TSD[Bip][Bip]-NH2) | – | EC50 (cAMP EC50, nM (0.1% albumin), Table 1, Phe6 modifications, 0.1% albumin): 0.32 nM |
| C[C@@H](O)[C@H](NC(=O)CNC(=O)[C@H](CCC(=O)O)NC(=O)C(C)(C)NC(=O)[C@@H](N)Cc1c[nH]cn1)C(=O)N[C@@](C)(Cc1ccccc1F)C(=O)N[C@H](C(=O)N[C@@H](CO)C(=O)N[C@@H](CC(=O)O)C(=O)N[C@@H](Cc1ccc(-c2ccccc2)cc1)C(=O)N[C@H](Cc1ccc(OC(=O)NCCOCCOCC(=O)NCCOCCOCC(=O)NC[C@H](NC(=O)CCCCCCCCCCCCCCCCC(=O)O)C(=O)O)cc1)C(N)=O)[C@@H](C)O [(D)-4-43, H2N-His-Aib-Glu-Gly-Thr-α-MePhe(2-F)-Thr-Ser-Asp-Bip-D-Tyr(O-R5)-C(O)NH2] (H-H[Aib]EGT[αMePhe(2-F)]TSD[Bip][dY]([CO-AEEA-AEEA-Dap(Nα-HOOC(CH2)16CO)OH])-NH2) | 693 | – |
| C[C@@H](O)[C@H](NC(=O)CNC(=O)[C@H](CCC(=O)O)NC(=O)C(C)(C)NC(=O)[C@@H](N)Cc1c[nH]cn1)C(=O)N[C@@](C)(Cc1ccccc1F)C(=O)N[C@H](C(=O)N[C@@H](CO)C(=O)N[C@@H](CC(=O)O)C(=O)N[C@@H](Cc1ccc(-c2ccccc2)cc1)C(=O)N[C@@H](CCc1ccc(OC(=O)NCCOCCOCC(=O)NCCOCCOCC(N)=O)cc1)C(N)=O)[C@@H](C)O [4-38, H2N-His-Aib-Glu-Gly-Thr-α-MePhe(2-F)-Thr-Ser-Asp-Bip-Hph(4-OR4)-C(O)NH2] (H-H[Aib]EGT[αMePhe(2-F)]TSD[Bip][X6]([AEEA-AEEA-NH2])-NH2) | 320 | – |
